Source: patent US5612480A, “2-chloro and 2-bromo derivatives of 1,5-iminosugars” (priority 1995, dated 1997)
In brackets after ≈: the same amount, converted by molar mass. Like-named read-outs stand apart in the source and are kept apart here.

How the values were obtained:
[1] = test system: HIV-1; experiment: Anti-HIV activity: inhibition of HIV-1 induced cytopathic effect in CEM cells, MTT (Method B); format: cell-based, strain HTVL-IIIB; conditions: Human immunodeficiency virus 1, CCRF-CEM; for inhibition at 500 µg/mL: 500 μg/mL; for inhibition at 10 µg/mL: 10 μg/mL; for inhibition at 100 µg/mL: 100 μg/mL
Procedure: (§1) Inhibitory activity against HIV-1 was shown by tests involving plating of susceptible human host cells which are syncytium-sensitive with and without virus in microculture plates, adding various concentrations of the test compound, incubating the plates for 7 to 9 days (during which time infected, non-drug treated control cells are largely or totally destroyed by the virus), and then determining the remaining number of viable cells with a colorometric endpoint.
(§2) Various illustrative compounds synthesized above were tested for inhibition of visna virus in vitro in a plaque reduction assay (Method A) or for inhibition of HIV-1 in a test which measured reduction of cyto-pathogenic effect in virus-infected syncytium-sensitive Leu-3a-positive CEM cells grown in tissue culture (Method B) as follows:
Tissue culture plates were incubated at 37° C. in a humidified, 5% CO2 atmosphere and observed microscopically for toxicity and/or cytopathogenic effect (CPE). At 1 hour prior to infection each test article was prepared from the frozen stock, and a 20 μl volume of each dilution (prepared as a 10 X concentration) was added to the appropriate wells of both infected and uninfected cells.
Assays were done in 96-well tissue culture plates. CEM cells were treated with polybrene at a concentration of 2 μg/ml, and an 80 μl volume of cells (1×10^4 cells) was dispensed into each well. A 100 μl volume of each test article dilution (prepared as a 2 X concentration) was added to 5 wells of cells, and the cells were incubated at 37° C. for 1 hour. A frozen culture of HIV-1, strain HTVL-IIIB, was diluted in culture medium to a concentration of 5×10^4 TCID50 per ml, and a 20 μl volume (containing 10^3 TCID50 of virus) was added to 3 of the wells for each test article concentration. […] A 20 μl volume of normal culture medium was added to the remaining wells to allow evaluation of cytotoxicity. Each plate contained 6 wells of untreated, uninfected, cell control samples and 6 wells of untreated, infected, virus control samples.
On the 9th day post-infection, the cells in each well were resuspended and a 100 μl sample of each cell suspension was removed for use in an MTT assay. A 20 μl volume of a 5 mg/ml solution of 3-(4,5-dimethylthiazol-2-yl)-2,5-diphenyltetrazolium bromide (MTT) was added to each 100 μl cell suspension, and the cells were incubated at 37° C. in 5% CO2 for 4 hours. […] A 100 μl volume of a solution of 10% sodium dodecyl sulfate in 0.01 N hydrochloric acid was added to each sample, and the samples were incubated overnight. The absorbance at 590 nm was determined for each sample using a Molecular Devices Vmax microplate reader. This assay detects drug-induced suppression of viral CPE, as well as drug cytotoxicity, by measuring the generation of MTT-formazan by surviving cells.

[2] = target: T1, α-Glucosidase (yeast) (Saccharomyces cerevisiae, UniProt P53341); experiment: Alpha-glucosidase (yeast) inhibition assay, pH 7.4; format: biochemical
T1 construct: purchased Sigma
Procedure: (§3) Yeast alpha-glucosidase and almond beta-glucosidase activities were measured by a modification of the method of Evans, et al., Phytochemistry 22, 768-770 (1983). The modifications included (1) assay of activities at pH 7.4 in HEPES (N-2-hydroxyethylpiperazine-N'-2-ethanesulfonic acid) buffer, 2) measurement in 96 well microtiter plates and (3) inclusion of 10% DMSO in control and test samples.
(§4) The release of p-nitrophenol from the substrate p-nitrophenylglycoside was measured spectrophotometrically in the presence and absence of test compound. Each assay included a known inhibitor of the enzyme as a standard. IC50 values were determined for compounds which inhibited the enzymes more than 50% at a 1 millimolar concentration.
(§5) To 100 μl 50 mM HEPES buffer, pH 7.4, in a microtiter plate, add 20 μl test compound in DMSO (DMSO alone in control), 40 μl (0.013 units) yeast alpha-glucosidase (Sigma) in HEPES buffer and pre-incubate at room temperature for 15 minutes. Add 40 μl 1.25 mM p-nitrophenyl-alpha-D-glucopyranoside (Sigma) in HEPES buffer, as substrate, and monitor absorbance change at 405 nm in a Biotek EIA Autoreader. Absorption change was measured at 15 to 25 minutes (reaction was linear for at least 30 minutes). Each sample was tested in triplicate. IC50 values were determined from the linear portion of the log concentration vs % inhibition curve obtained from a minimum of 3 points. Deoxynojirimycin was used as standard inhibitor.

[3] = test system: β-Glucosidase (almond); experiment: Beta-glucosidase (almond) inhibition assay, pH 7.4; format: biochemical
Procedure: as §3, §4
as §5, with “μl (0.136” for “μl (0.013”, “units) beta-glucosidase” for “units) yeast alpha-glucosidase”, “mM p-nitrophenyl-beta-D-glucopyranoside” for “mM p-nitrophenyl-alpha-D-glucopyranoside (Sigma)”, “as substrate” for “as substrate,”, “(reaction is” for “(reaction was”, “points. Castanospermine” for “points. Deoxynojirimycin”

[4] = test system: β-Glucosidase (almond); experiment: Beta-glucosidase (almond) inhibitor assay, pH 4.8; format: biochemical
Procedure: as §3, §4
To 100 μl 50 mM sodium citrate buffer, pH 4.8, in a microtiter plate, add 15 μl test compound in DMSO (DMSO alone in control), 20 μl (0.017 units) beta-glucosidase (Sigma) in citrate buffer and pre-incubate at room temperature for 15 minutes. Add 25 μl 2.50 mM p-nitrophenyl-beta-D-glucopyranoside in citrate buffer, as substrate. Incubate at room temperature 20 minutes (reaction is linear for at least 30 minutes). Add 50 μl 0.4 M NaOH. Read absorption change at 405 nm in a Biotek EIA Autoreader. Each sample was tested in triplicate. IC50 values were determined from the linear portion of the log concentration vs % inhibition curve obtained from a minimum of 3 points. Castanospermine was used as standard inhibitor.

[5] = test system: visna virus; experiment: Inhibition of visna virus growth, plaque reduction assay in sheep choroid plexus (SCP) cells (Method A); format: cell-based
Source text: Inhibitory activity against visna virus was shown by a conventional plaque reduction assay. Visna virus, a lentivirus genetically very similar to the AIDS virus, is pathogenic for sheep and goats. See Sonigo et al., Cell 42, 369-382 (1985); Haase, Nature 322, 130-136 (1986). Inhibition of visna virus replication in vitro as a useful model for HIV and its inhibition by test compounds has been described by Frank et al., Antimicrobial Agents and Chemotherapy 31 (9), 1369-1374 (1987).
as §2
Sheep choroid plexus (SCP) cells were obtained from American Type Culture Collection (ATCC) catalogue number CRL 1700 and were routinely passaged in vitro in Dulbecco's Modified Eagles (DME) medium supplemented with 20% fetal bovine serum (FBS). SCP cells were passaged once per week at a 1:2 or 1:3 split ratio. Visna was titrated by plaque assay in six-well plates. Virus pools were stored at -70° C.
SCP cells were cultured in 6-well plates to confluence. Wells were washed two times with serum free Minimal Essential Medium (MEM) to remove FBS. 0.2 ml of virus was added per well in MEM supplemented with 4 mM glutamine and gentamycin. After 1 hour adsorption, the virus was aspirated from each well. The appropriate concentration of each compound in 5 ml of Medium 199 (M-199) supplemented with 2% lamb serum, 4 mM glutamine, 0.5% agarose and gentamycin was added to each well. Cultures were incubated at 37° C. in a humidified 5% CO2 incubator for 3-4 weeks. To terminate the test, cultures were fixed in 10% formalin, the agar removed, the monolayers stained with 1% crystal violet and plaques counted. Each compound concentration was run in triplicate. […] 0 is no toxicity observed while 4 is total lysing of the cell monolayer. […]
Control wells without virus were completed to determine the toxicity of compounds.

[6] = test system: α-glucosidase; conditions: 0.1 mM; according to U.S. Pat. No. 5,025,021; cited from earlier work
[7] = test system: β-glucosidase; conditions: 0.1 mM; according to U.S. Pat. No. 5,025,021; cited from earlier work
[8] = Cytotoxicity in CEM cells (TD50) in the standard CEM cell assay for HIV inhibition; format: cell-based; conditions: human
Procedure: as §1
This is illustrated by a side-by-side comparison between the 2-chloro-N-butyl-DNJ of the present invention and the corresponding 2-fluoro-N-butyl-DNJ disclosed in U.S Pat. No. 5,025,021. […] Moreover, the foregoing illustrative 2-chloro derivative also is a better enzyme inhibitor than the corresponding 2-fluoro derivative. The 2-chloro derivative inhibits α-glucosidase 46% and β-glucosidase 32% at 0.1 mM, whereas the corresponding 2-fluoro derivative inhibits these enzymes at only 8% and 4% at the same concentration according to U.S. Pat. No. 5,025,021.
Assays were done in 96-well tissue culture plates. […]
On the 9th day post-infection, the cells in each well were resuspended and a 100 μl sample of each cell suspension was removed for use in an MTT assay. […] The absorbance at 590 nm was determined for each sample using a Molecular Devices Vmax microplate reader. […]

[9] = test system: α-glucosidase; experiment: α-glucosidase inhibition, conventional in vitro assay (p-nitrophenol release); format: biochemical; conditions: 0.1 mM
Procedure: (§6) Inhibitory activity against α- and β-glucosidase enzymes was determined by conventional in vitro assays for these enzymes as described in U.S. Pat. No. 4,973,602. These assays involve spectrophotometric measurement of the release of p-nitrophenol from the substrate p-nitrophenyl-glycoside in the presence and absence of the test compound and comparison against a control standard that contains a known inhibitor of the enzyme.

[10] = test system: β-glucosidase; experiment: β-glucosidase inhibition, conventional in vitro assay (p-nitrophenol release); format: biochemical; conditions: 0.1 mM
Procedure: as §6

[11] = CEM cells, Table 2, read-out: Anti-HIV activity, inhibition of virus induced cytopathic effect, EC50
[12] = pH 7.4, read-out: Percent inhibition of α-glucosidase (yeast)
[13] = standard CEM cell assay, side-by-side comparison

T1 sequence (P53341 whole entry): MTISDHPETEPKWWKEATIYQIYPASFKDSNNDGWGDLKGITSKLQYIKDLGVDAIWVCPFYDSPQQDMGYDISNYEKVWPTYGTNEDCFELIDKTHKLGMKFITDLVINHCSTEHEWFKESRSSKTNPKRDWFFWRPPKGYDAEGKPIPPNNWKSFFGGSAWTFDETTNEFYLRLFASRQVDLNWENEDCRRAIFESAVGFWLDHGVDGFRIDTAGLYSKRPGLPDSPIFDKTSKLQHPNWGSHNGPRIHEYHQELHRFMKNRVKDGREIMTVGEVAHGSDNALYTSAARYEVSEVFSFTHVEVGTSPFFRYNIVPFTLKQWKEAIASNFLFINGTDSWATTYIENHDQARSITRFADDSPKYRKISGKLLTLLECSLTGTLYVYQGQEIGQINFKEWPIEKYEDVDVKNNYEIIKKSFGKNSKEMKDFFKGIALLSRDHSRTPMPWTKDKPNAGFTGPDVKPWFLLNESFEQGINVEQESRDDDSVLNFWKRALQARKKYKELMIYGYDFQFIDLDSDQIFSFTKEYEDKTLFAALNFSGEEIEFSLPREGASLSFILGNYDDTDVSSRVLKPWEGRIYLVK

CCCCN1[C@H](CO)[C@@H](O)[C@H](O)[C@H]1CN=[N+]=[N-] [Example 47, 1-Azido-2,5-(butylimino)-1,2,5-trideoxy-D-mannitol]
inhibition at 500 µg/mL ([1]; CEM cells, Table 2, read-out: Anti-HIV activity, % inhibition of virus induced cytopathic effect): 36% | inhibition at 100 µM ([2]; 100 μM, pH 7.4, read-out: Percent inhibition of α-glucosidase (yeast)): 22.7% | inhibition at 1000 µM ([2]; 1000 μM, pH 7.4, read-out: Percent inhibition of α-glucosidase (yeast)): 24.8% | Percent inhibition of β-glucosidase (almond) ([3]; 100 μM): -4.1% | Percent inhibition of β-glucosidase (almond) ([3]; 1000 μM): 6.7% | Percent inhibition of β-glucosidase (almond) ([4]; 100 μM): 11.2% | Percent inhibition of β-glucosidase (almond) ([4]; 1000 μM): 32.6%

CCCCCCN1C[C@H](Cl)[C@@H](O)[C@H](O)[C@H]1CO [Example 28, 2-Chloro-1,2,5-trideoxy-1,5(hexylimino)-D-glucitol]
% inhibition of visna virus growth ([5]; 0.001 mM): 6% | % inhibition of visna virus growth ([5]; 0.01 mM): 61% | % inhibition of visna virus growth ([5]; 0.1 mM): 100% | % inhibition of visna virus growth ([5]; 1.0 mM): 100% | EC50 [1, 11]: 11 µg/mL (≈ 41.4 µM) | inhibition at 1 µM [2, 12]: 4% | inhibition at 10 µM [2, 12]: 37.6% | inhibition at 100 µM [2, 12]: 82.9% | inhibition at 1000 µM [2, 12]: 95.5% | Percent inhibition of β-glucosidase (almond) ([3]; 100 μM): 62.9% | Percent inhibition of β-glucosidase (almond) ([3]; 1000 μM): 90% | Percent inhibition of β-glucosidase (almond) ([4]; 100 μM): 43.7% | Percent inhibition of β-glucosidase (almond) ([4]; 1000 μM): 84%

CCCCN1C[C@H](F)[C@@H](O)[C@H](O)[C@H]1CO [2-fluoro-N-butyl-DNJ, reference compound]
inhibition at 10 µg/mL [1, 13]: 0% | inhibition at 100 µg/mL [1, 13]: 0% | inhibition at 500 µg/mL ([1]; standard CEM cell assay, side-by-side comparison, read-out: % inhibition of HIV): 3% | % inhibition of α-glucosidase [6]: 8% | % inhibition of β-glucosidase [7]: 4%

CCCCN1C[C@H](Cl)[C@@H](O)[C@H](O)[C@H]1CO [Example 27, 1,5-(Butylimino)-2-chloro-1,2,5-trideoxy-D-glucitol]
inhibition at 10 µM ([5]; Visna-maedi virus, 0.01 mM): 39% | inhibition at 100 µM ([5]; Visna-maedi virus, 0.1 mM): 38% | inhibition at 1000 µM ([5]; Visna-maedi virus, 1.0 mM): 99% | inhibition at 10 µg/mL [1, 13]: 29.3% | inhibition at 100 µg/mL [1, 13]: 62.5% | EC50 [1, 11]: 43 µg/mL (≈ 181 µM) | EC50 ([1]; standard CEM cell assay, side-by-side comparison, read-out: EC50, HIV inhibition, calculated by linear regression): 43 µg/mL (≈ 181 µM) | CC50 [8]: 187 µg/mL (≈ 787 µM) | % inhibition of α-glucosidase [9]: 46% | % inhibition of β-glucosidase [10]: 32%

OC[C@@H]1[C@@H](O)[C@H](O)[C@@H](Cl)CN1CCCc1ccccc1 [Example 30, 2-Chloro-1,2,5-trideoxy-1,5-(3-phenyl)propylimino-D-glucitol]
% inhibition of visna virus growth ([5]; 0.001 mM): 20% | % inhibition of visna virus growth ([5]; 0.01 mM): 57% | % inhibition of visna virus growth ([5]; 0.1 mM): 97% | % inhibition of visna virus growth ([5]; 1.0 mM): 100% | inhibition at 1 µM [2, 12]: 4.6% | inhibition at 10 µM [2, 12]: 46.4% | inhibition at 100 µM [2, 12]: 87.3% | inhibition at 1000 µM [2, 12]: 97.5% | Percent inhibition of β-glucosidase (almond) ([3]; 100 μM): 66.2% | Percent inhibition of β-glucosidase (almond) ([3]; 1000 μM): 92.5% | Percent inhibition of β-glucosidase (almond) ([4]; 100 μM): 47.6% | Percent inhibition of β-glucosidase (almond) ([4]; 1000 μM): 84.7%
